Laboratory results taken from patent US12172983B2, “EGFR inhibitors” (Blueprint Medicines Corporation, priority 2019, dated 2024).

Legend:
[1] = test system: phosphorylation of EGFR (Tyr1068) in NCI-H1975 cell line that harbors the EGFR L858R T790M mutations; assay: NCI-H1975 pEGFR AlphaLISA assay; type: cell-based; conditions: Homo sapiens, NCI-H1975, inhibition of phosphorylation of mutant EGFR in NCI-H1975 cells; 4-5 hours incubation; read-out: Ext pEGFR H1975
Outline: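 Phospho-EGFR Tyr1068 AlphaLISA readout: lysates taken from compound-treated H1975 cells (L858R T790M EGFR) after a 4-5 h exposure at 37 °C. Cells had adhered overnight beforehand. IC50 derived by plotting % pEGFR inhibition against log compound concentration.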

EGFR (L858R T790M C797S) = target: T1, EGFR (L858R T790M C797S) (Homo sapiens, UniProt P00533, C797S/L858R/T790M); assay: Biochemical EGFR inhibition assay (Caliper mobility shift), EGFR LRTMCS mutant; conditions: inhibitory activity against EGFR LRTMCS mutant; apparent IC50; read-out: Ext Enz LRTMCS
T1 construct: purchased SignalChem E10-122VG
Outline: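 Apparent IC50s were derived by plotting percent activity against the log of compound concentration. Activity was measured as phosphopeptide electrophoretically separated from substrate, after reactions at room temperature reached 10% to 20% phosphorylation and were halted with 35 mM EDTA.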

T1 sequence (P00533 25-1210 T790M/C797S/L858R): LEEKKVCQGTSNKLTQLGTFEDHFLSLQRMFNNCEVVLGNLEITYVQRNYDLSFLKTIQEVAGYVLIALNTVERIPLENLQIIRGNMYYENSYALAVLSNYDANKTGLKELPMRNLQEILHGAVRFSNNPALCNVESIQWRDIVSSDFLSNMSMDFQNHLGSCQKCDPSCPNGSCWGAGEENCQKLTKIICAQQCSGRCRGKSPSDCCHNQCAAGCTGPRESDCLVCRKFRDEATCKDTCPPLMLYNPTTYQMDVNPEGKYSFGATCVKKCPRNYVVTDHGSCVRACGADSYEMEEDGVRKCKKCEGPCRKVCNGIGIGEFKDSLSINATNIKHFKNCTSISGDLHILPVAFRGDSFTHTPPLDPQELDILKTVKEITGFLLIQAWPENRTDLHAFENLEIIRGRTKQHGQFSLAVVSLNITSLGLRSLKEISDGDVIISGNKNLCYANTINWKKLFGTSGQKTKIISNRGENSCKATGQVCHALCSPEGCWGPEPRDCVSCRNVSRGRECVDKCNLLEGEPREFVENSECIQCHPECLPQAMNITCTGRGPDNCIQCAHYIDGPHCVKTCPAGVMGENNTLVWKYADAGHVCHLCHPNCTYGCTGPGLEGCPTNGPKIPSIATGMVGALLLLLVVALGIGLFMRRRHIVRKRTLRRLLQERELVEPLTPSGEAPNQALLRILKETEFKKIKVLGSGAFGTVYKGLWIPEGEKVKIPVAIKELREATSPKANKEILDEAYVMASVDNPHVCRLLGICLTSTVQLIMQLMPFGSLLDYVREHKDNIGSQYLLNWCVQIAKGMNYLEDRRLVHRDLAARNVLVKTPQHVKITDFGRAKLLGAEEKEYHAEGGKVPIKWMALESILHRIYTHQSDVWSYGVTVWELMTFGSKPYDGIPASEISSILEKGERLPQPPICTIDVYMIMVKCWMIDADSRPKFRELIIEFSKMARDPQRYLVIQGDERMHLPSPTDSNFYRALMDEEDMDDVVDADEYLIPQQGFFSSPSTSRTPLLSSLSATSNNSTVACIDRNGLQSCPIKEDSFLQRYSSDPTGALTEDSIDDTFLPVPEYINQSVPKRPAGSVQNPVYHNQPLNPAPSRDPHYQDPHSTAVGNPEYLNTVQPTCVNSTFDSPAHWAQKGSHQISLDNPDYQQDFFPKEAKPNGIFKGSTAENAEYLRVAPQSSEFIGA

Row | IC50 [1] [nM] | IC50 (EGFR (L858R T790M C797S)) [nM] | SMILES
1 | ≤ 10 | ≤ 15 | CCS(=O)(=O)C[C@H]1CN(c2ccc(C(C)C)c3cc(Nc4cnnc(N5CC[C@@H](OC)[C@@H](F)C5)n4)ncc23)[C@@H]1C [Compound 288, 8-[(2R,3S)-3-[(ethanesulfonyl)methyl]-2-methylazetidin-1-yl]-N-{3-[(3S,4R)-3-fluoro-4-methoxypiperidin-1-yl]-1,2,4-triazin-5-yl}-5-(propan-2-yl)isoquinolin-3-amine]
2 | ≤ 10 | ≤ 15 | CC(C)c1ccc(N2C[C@H](CS(C)(=O)=O)[C@H]2C)c2cnc(Nc3ccnc(N4CCC(N)C(F)(F)C4)n3)cc12 (single isomer, unassigned) [Compound 152, N-(2-((R)-4-amino-3,3-difluoropiperidin-1-yl)pyrimidin-4-yl)-5-isopropyl-8-((2R,3S)-2-methyl-3-(methylsulfonylmethyl)azetidin-1-yl(isoquinolin-3-amine or N-(2-((S)-4-amino-3,3-difluoropiperidin-1-yl)pyrimidin-4-yl)-5-isopropyl-8-((2R,3S)-2-methyl-3-((methylsulfonyl)methyl)azetidin-1-yl)isoquinolin-3-amine]
3 | ≤ 10 | ≤ 15 | CNCCO[C@@H]1CCN(c2nccc(Nc3cc4c(C(C)C)ccc(N5C[C@H](CS(C)(=O)=O)[C@H]5C)c4cn3)n2)C[C@@H]1F [Compound 240, N-{2-[(3S,4R)-3-fluoro-4-[2-(methylamino)ethoxy]piperidin-1-yl]pyrimidin-4-yl}-8-[(2R,3S)-3-(methanesulfonylmethyl)-2-methylazetidin-1-yl]-5-(propan-2-yl)isoquinolin-3-amine]
4 | ≤ 10 | ≤ 15 | CO[C@@H]1CCN(c2nccc(Nc3cc4c(C(C)C)cnc(N5CC(CS(C)(=O)=O)C5)c4cn3)n2)C[C@@H]1F [Compound 72, N-{2-[(3S,4R)-3-fluoro-4-methoxypiperidin-1-yl]pyrimidin-4-yl}-8-[3-(methanesulfonylmethyl)azetidin-1-yl]-5-(propan-2-yl)-2,7-naphthyridin-3-amine]
5 | ≤ 10 | ≤ 15 | CC(C)c1cnc(N2CC(CS(=O)(=O)C(C)C)C2)c2cnc(Nc3ccnc(N4CC[C@@H](O)[C@@](C)(F)C4)n3)cc12 (single isomer, unassigned) [Compound 188]
6 | ≤ 10 | 20.1 to 30 | CO[C@@H]1CCN(c2nccc(Nc3cc4c(C(C)C)ccc(N5C[C@H](CS(C)(=O)=O)[C@H]5C)c4cn3)n2)C[C@]1(C)F (single isomer, unassigned) [Compound 185]
7 | 10.1 to 20 | ≤ 15 | CO[C@@H]1CN(c2nccc(Nc3cc4c(C(C)C)ccc(N5C[C@H](CS(C)(=O)=O)[C@H]5C)c4cn3)n2)CC[C@@H]1O (single isomer, unassigned) [Compound 99, (3R,4S)-1-[4-({8-[(2R,3S)-3-(methanesulfonylmethyl)-2-methylazetidin-1-yl]-5-(propan-2-yl)isoquinolin-3-yl}amino)pyrimidin-2-yl]-3-methoxypiperidin-4-ol or (3S,4R)-1-[4-({8-[(2R,3S)-3-(methanesulfonylmethyl)-2-methylazetidin-1-yl]-5-(propan-2-yl)isoquinolin-3-yl}amino)pyrimidin-2-yl]-3-methoxypiperidin-4-ol]
8 | ≤ 10 | ≤ 15 | C[C@@H]1[C@@H](CS(C)(=O)=O)CN1c1ccc(C2CC2)c2cc(Nc3ccnc(N4CC[C@@H](O)[C@@](C)(F)C4)n3)ncc12 (single isomer, unassigned) [Compound 90]
9 | 10.1 to 20 | 15.1 to 20 | CC(C)c1ncc(N2C[C@H](CS(C)(=O)=O)[C@H]2C)c2cnc(Nc3ccnc(N4CC[C@H](OCC(C)(C)O)[C@H](F)C4)n3)cc12 [Compound 257, 1-{[(3R,4S)-3-fluoro-1-[4-({8-[(2R,3S)-3-(methanesulfonylmethyl)-2-methylazetidin-1-yl]-5-(propan-2-yl)-2,6-naphthyridin-3-yl}amino)pyrimidin-2-yl]piperidin-4-yl]oxy}-2-methylpropan-2-ol]

The remaining lines, values behind:

Row | SMILES | IC50 [1] [nM] | IC50 (EGFR (L858R T790M C797S)) [nM]
10 | CC(C)c1cnc(N2CC([C@H](C)S(C)(=O)=O)C2)c2cnc(Nc3ccnc(N4CC[C@@H](O)[C@@](C)(F)C4)n3)cc12 (single isomer, unassigned) [Compound 126] | ≤ 10 | ≤ 15
11 | CC(C)c1ccc(N2CC(CS(C)(=O)=O)C2)c2cnc(Nc3ccnc(N4CC[C@](C)(O)[C@H](F)C4)n3)cc12 (single isomer, unassigned) [Compound 57] | 10.1 to 20 | ≤ 15
12 | CO[C@@H]1CN(c2nccc(Nc3cc4c(C(C)C)ccc(N5C[C@H](CS(C)(=O)=O)[C@H]5C)c4cn3)n2)C[C@H](F)[C@@H]1O (single isomer, unassigned) [Compound 204, (3S,4R,5R)-3-fluoro-1-[4-({8-[(2R,3S)-3-(methanesulfonylmethyl)-2-methylazetidin-1-yl]-5-(propan-2-yl)isoquinolin-3-yl}amino)pyrimidin-2-yl]-5-methoxypiperidin-4-ol or (3R,4S,5S)-3-fluoro-1-[4-({8-[(2R,3S)-3-(methanesulfonylmethyl)-2-methylazetidin-1-yl]-5-(propan-2-yl)isoquinolin-3-yl}amino)pyrimidin-2-yl]-5-methoxypiperidin-4-ol] | ≤ 10 | ≤ 15
13 | CC(C)c1ccc(N2CC(CS(=O)(=O)C(F)F)C2)c2cnc(Nc3ccnc(N4CC[C@@H](O)[C@@](C)(F)C4)n3)cc12 (single isomer, unassigned) [Compound 219] | ≤ 10 | ≤ 15
14 | CO[C@]1(C)CN(c2nccc(Nc3cc4c(C(C)C)ccc(N5CC(CS(C)(=O)=O)C5)c4cn3)n2)CC[C@@H]1O (single isomer, unassigned) [Compound 94, (3R,4S)-1-[4-({8-[3-(methanesulfonylmethyl)azetidin-1-yl]-5-(propan-2-yl)isoquinolin-3-yl}amino)pyrimidin-2-yl]-3-methoxy-3-methylpiperidin-4-ol or (3S,4R)-1-[4-({8-[3-(methanesulfonylmethyl)azetidin-1-yl]-5-(propan-2-yl)isoquinolin-3-yl}amino)pyrimidin-2-yl]-3-methoxy-3-methylpiperidin-4-ol] | 20.1 to 30 | ≤ 15
15 | CC[C@]1(F)CN(c2nccc(Nc3cc4c(C(C)C)ccc(N5CC(CS(C)(=O)=O)C5)c4cn3)n2)CC[C@H]1O (single isomer, unassigned) [Compound 115, (3S,4R)-3-ethyl-3-fluoro-1-[4-({8-[3-(methanesulfonylmethyl)azetidin-1-yl]-5-(propan-2-yl)isoquinolin-3-yl}amino)pyrimidin-2-yl]piperidin-4-ol or (3R,4S)-3-ethyl-3-fluoro-1-[4-({8-[3-(methanesulfonylmethyl)azetidin-1-yl]-5-(propan-2-yl)isoquinolin-3-yl}amino)pyrimidin-2-yl]piperidin-4-ol] | ≤ 10 | ≤ 15
16 | CC(C)c1ccc(N2C[C@H](CS(C)(=O)=O)[C@H]2C)c2cnc(Nc3ccnc(N4CC[C@H](OCC(C)(C)O)[C@H](F)C4)n3)cc12 [Compound 255, 1-{[(3R,4S)-3-fluoro-1-[4-({8-[(2R,3S)-3-(methanesulfonylmethyl)-2-methylazetidin-1-yl]-5-(propan-2-yl)isoquinolin-3-yl}amino)pyrimidin-2-yl]piperidin-4-yl]oxy}-2-methylpropan-2-ol] | ≤ 10 | 20.1 to 30
17 | CC(C)c1ncc(N2C[C@H](CS(C)(=O)=O)[C@H]2C)c2cnc(Nc3ccnc(N4CC[C@H]5COC[C@H]54)n3)cc12 (single isomer, unassigned) [Compound 267, N-(2-((3aR,6aS)-hexahydro-1H-furo[3,4-b]pyrrol-1-yl)pyrimidin-4-yl)-5-isopropyl-8-((2R,3S)-2-methyl-3-((methylsulfonyl)methyl)azetidin-1-yl)-2,6-naphthyridin-3-amine or N-(2-((3aS,6aR)-hexahydro-1H-furo[3,4-b]pyrrol-1-yl)pyrimidin-4-yl)-5-isopropyl-8-((2R,3S)-2-methyl-3-((methylsulfonyl)methyl)azetidin-1-yl)-2,6-naphthyridin-3-amine] | ≤ 10 | ≤ 15
18 | CC(C)c1ncc(N2CC(CS(C)(=O)=O)C2)c2cnc(Nc3ccnc(N4CC[C@@H](O)[C@@](C)(F)C4)n3)cc12 (single isomer, unassigned) [Compound 70] | ≤ 10 | ≤ 15
19 | CC(C)c1ccc(N2CC(CS(=O)(=O)CCN(C)C)C2)c2cnc(Nc3ccnc(N4CC[C@@H](O)[C@@](C)(F)C4)n3)cc12 (single isomer, unassigned) [Compound 239] | ≤ 10 | ≤ 15
20 | CC(C)c1ccc(N2CC(CS(C)(=O)=O)C2)c2cnc(Nc3ccnc(N4CCOCC4)n3)cc12 [Compound 1, 8-[3-(methanesulfonylmethyl)azetidin-1-yl]-N-[2-(morpholin-4-yl)pyrimidin-4-yl]-5-(propan-2-yl)isoquinolin-3-amine] | 30.1 to 50 | 15.1 to 20
21 | CCS(=O)(=O)C[C@H]1CN(c2cnc(C(C)C)c3cc(Nc4ccnc(N5CC[C@H](OCCO)[C@H](F)C5)n4)ncc23)[C@@H]1C [Compound 299, 2-{[(3R,4S)-1-[4-({8-[(2R,3S)-3-[(ethanesulfonyl)methyl]-2-methylazetidin-1-yl]-5-(propan-2-yl)-2,6-naphthyridin-3-yl}amino)pyrimidin-2-yl]-3-fluoropiperidin-4-yl]oxy}ethan-1-ol] | ≤ 10 | ≤ 15
